Test results from ChEMBL document CHEMBL1133377, “1-[2-(Diphenylmethoxy)ethyl]-2-methyl-5-nitroimidazole: a potent lead for the design of novel NNRTIs” (Bioorg Med Chem Lett, 2000).

Columns and labels:
[1] = tested on: MT4; assay: Compound dose required to achieve protection of MT-4 cells from HIV-1 induced cytopathicity using MTT method; assay type: functional, cell-based; settings: Homo sapiens
[2] = Compound dose required to reduce viability of mock infected cells using MTT method; assay type: functional
[3] = Selectivity index is ratio of CC50 to that of EC50; assay type: functional
[4] = molecular target: Human immunodeficiency virus type 1 reverse transcriptase (Human immunodeficiency virus 1, UniProt Q72547); assay: Compound dose required to inhibit HIV-1 reverse transcriptase enzyme(rRT) activity

Structure (SMILES) | EC50 [1] | CC50 [2] | S.I [3] | IC50 [4]
Cc1ncc([N+](=O)[O-])n1CCOC(c1ccccc1)c1ccc(F)cc1 (centres undefined) | 0.9 µM | > 200 µM | 222 | 2.3 µM
Cc1ncc([N+](=O)[O-])n1CCOC(c1ccccc1)c1ccc(-c2ccccc2)cc1 (centres undefined) | 17 µM | > 200 µM | 12 | –
Cc1ncc([N+](=O)[O-])n1CCOC(c1ccccc1)c1ccc(C(C)(C)C)cc1 (centres undefined) | 4 µM | 44 µM | 11 | 1.5 µM
Cc1ncc([N+](=O)[O-])n1CCOC(c1ccccc1)c1ccccc1 | 0.2 µM | > 200 µM | > 1000 | 0.05 µM
Cc1ncc([N+](=O)[O-])n1CCOC(c1ccccc1)c1ccc(Cl)cc1 (centres undefined) | 12.5 µM | > 200 µM | > 16 | –
Cc1ccc(C(OCCn2c([N+](=O)[O-])cnc2C)c2ccccc2)cc1 (centres undefined) | 1.4 µM | 86 µM | 61 | 2.1 µM
Clc1ccc(C(OCCn2ccnc2)c2ccccc2)c(Cl)c1 (centres undefined) | > 31 µM | 31 µM | – | –
Cc1ccnc2c1NC(=O)c1cccnc1N2C1CC1 [NEVIRAPINE] | – | > 300 µM | > 1000 | –
Clc1ccc(C(OCCn2ccnc2)c2ccc(Cl)cc2Cl)cc1 (centres undefined) | > 26 µM | 26 µM | – | –
Cc1ncc([N+](=O)[O-])n1CCOC(c1ccccc1)c1ccc(Cl)cc1Cl (centres undefined) | 1.5 µM | 54 µM | 36 | 1.4 µM
c1ccc(C(OCCn2ccnc2)c2ccccc2)cc1 | > 100 µM | 100 µM | – | –
